Patent US6391917B1, “Dialkyl ureas as calcitonin mimetics” (ZymoGenetics, Inc., priority 1998, dated 2002)

Key:
Assay type in all cases: cell-based
[1] = tested on: osteoclasts in mouse calvariae; experiment: Calvaria histology (osteoclast number and size, toxicity); conditions: for Histology (bone destruction by PTH, Oc size and #): mouse calvariae treated with PTH
Source text: To confirm the findings in the calvarial bone resorption assay employing calcium release from culture mouse calvariae, selected bones were fixed in 10% neutral buffered formalin and demineralized in 5% formic acid with 5% formalin. The bones were dehydrated through an ascending series of ethanol concentrations, infiltrated in glycol methacrylate, and embedded using a JB-4 embedding kit (PolySciences, Warrington, Pa.) (Liu, et al., J. Bone Mineral Res. 5:973-82, 1990). When necessary, an alternative embedding method (paraffin embedding) was used to speed up the embedding process. Cross sections of calvariae cut at 5 μm were obtained and stained for tartrate-resistant acid phosphatase (TRAP) activity and counterstained with methyl green and thionin for cell morphology (Liu, et al., ibid.). Osteoclasts were identified by TRAP stain, multinucleation, large cell size, and irregular cell shape. The number of osteoclasts were counted from endocranial and ectocranial bone surfaces and expressed as number/mm perimeter. The size of all the osteoclasts counted was also measured using a Bone Morphometry program (Liu, et al., ibid.; Bain, et al., J. Bone Miner. Res. 8:435-42, 1993). […] This PTH-induced increase was suppressed by treatment with human calcitonin.
Calcitonin mimetic compounds were evaluated in a similar fashion for their ability to suppress PTH-induced increases in osteoclast number and size (Table 2). Cell toxicity (or death) was also evaluated by the appearance of pyknotic nuclei in a small number of bone cells. With an increased level of toxicity, a further increase in the number of these pyknotic nuclei, detachment of cells from bone surfaces, and losses of cytoplasmic stain and cell boundaries were observed. The osteocytic space also appeared empty.

[2] = tested on: PTH-induced bone resorption in mouse calvariae; experiment: Calvarial assay: PTH-induced bone resorption, calcium release; conditions: 1 nM PTH 1-34, 72 hours
Description: Calvaria from 4-day old neonatal CD-1 mice (pregnant mice received from Charles River Laboratories, Wilmington, Mass.) were trimmed with fine-tipped scissors to leave the parietal regions, including the sagittal suture. These trimmed bones were placed singly per well into 6-well cell culture cluster plates (Costar, Pleasanton, Calif.) with 1 ml/well of Dulbecco's […] Essential Medium, […] (DMEM, BioWhittaker, Walkersville, Md.) or Basal Eagle's Medium with Earle's salts (EMEM, Gibco/BRL, Grand Island, N.Y.) and 0.29 mg/ml L-glutamine, 1 mM sodium pyruvate, 15% heat-inactivated horse serum, and antibiotics (penicillin-G 50 μg/ml, streptomycin 50 μg/ml, and neomycin 100 μg/ml). Calvaria were rocked gently (RedRocker™, model PR50-115 V, Hoefer, San Francisco, Calif. or Labline Rocking Shaker, model 4635, Labline Instruments, Melrose Park, Ill.) at 37° C. in a 5% CO2 humidified incubator for 24 hours preincubation.
Following preincubation, medium was removed and replaced with 1.5 ml/well of growth medium containing 1 nM parathyroid hormone (PTH) 1-34 (Sigma) to stimulate bone resorption. For evaluation of the ability of calcitonin mimetics to inhibit PTH induced bone resorption, mimetic compounds in DMSO were added to the growth medium at concentrations ranging from 1-400 μg/ml (final assay concentration of DMSO less than or equal to 1%). In each experiment human calcitonin (0.02-2 nM, 0.2-2 nM preferred) was added to PTH treated bones as a positive control. […] All control wells contained a final assay concentration of DMSO equal to that present in calcitonin mimetic treated wells.
Five bones were included in each sample group. Bones were incubated for 72 hours following PTH addition to allow resorption of bone to occur. Observations were made of the general appearance, healthiness and number of cells. that migrate from the calvaria during the incubation as a possible indication of cell toxicity. Calvaria to be examined histologically were transferred to glass scintillation vials containing 10 ml of 10% neutral buffered formalin. […]

[3] = biological target: T1, Human calcitonin receptor (Homo sapiens, UniProt P30988); experiment: CRE-luciferase assay for calcitonin mimetics (Hollex-1)
T1 construct: expressed in transfected cells; host or cells: BHK-570 (Hollex-1)
T1 sequence (P30988 25-474): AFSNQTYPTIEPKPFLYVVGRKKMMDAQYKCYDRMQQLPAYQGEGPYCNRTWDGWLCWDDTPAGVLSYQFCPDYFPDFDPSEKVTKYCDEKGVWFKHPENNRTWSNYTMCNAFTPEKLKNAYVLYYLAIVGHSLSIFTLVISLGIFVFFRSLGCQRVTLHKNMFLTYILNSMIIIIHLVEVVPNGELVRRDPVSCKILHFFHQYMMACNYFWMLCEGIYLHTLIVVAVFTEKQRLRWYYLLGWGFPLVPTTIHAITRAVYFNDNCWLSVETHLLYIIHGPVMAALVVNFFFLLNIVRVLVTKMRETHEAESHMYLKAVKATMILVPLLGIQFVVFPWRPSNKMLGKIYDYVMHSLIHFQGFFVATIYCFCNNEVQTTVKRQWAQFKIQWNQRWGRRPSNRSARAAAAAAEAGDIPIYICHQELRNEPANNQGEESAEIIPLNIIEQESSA
Description: CRE-Luciferase Assay Method for Calcitonin Mimetics
Human calcitonin receptor-positive and receptor-negative BHK-570 (Baby Hamster Kidney) cell lines were maintained by serial passage in growth medium (DMEM supplemented with 10% heat-inactivated fetal calf serum (HI-FCS), 2 mM L-glutamine, 1 mM sodium pyruvate, 250 nM MTX, and 1 mg/mL G418). On the day prior to assay, cells were trypsinized, adjusted to 2.5×10^5 cells/ml in growth medium, plated in opaque white Dynatech Microlite microtiter tissue culture plates at 50 μL/well, and grown overnight to confluence (37° C., 5% CO2 atmosphere).
Test substances were prepared in DMSO or 10% DMF at 100 times the final desired assay concentration. […] Controls were included on each plate: untreated wells (basal), […], and 100 nM human calcitonin. DMSO or DMF was included in control wells at a concentration equal to that in test samples (not to exceed a final assay concentration of 2% DMSO or 0.5% DMF, with a preferred maximum of 1% DMSO or 0.1% DMF).
Plates were incubated for 3 to 8 hours (4 hours preferred) at 37° C. in an atmosphere of 5% CO2. Following induction, luciferase activity was measured using a Promega luciferase assay kit (E1500) according to the assay kit protocol (Promega Corp., Madison, Wis.). Briefly, assay medium was removed and cells were washed once with phosphate buffered saline (PBS). After the wash, 25 μl of lysis buffer was added to each well, and the plates were incubated for 15 minutes at room temperature. Fifty microliters of Luciferase Assay Substrate (Promega, Corp.) was added to each well and the plates were transferred to a Labsystems Lumiscan microtiter luminometer (Labsystems Inc., Morton Grove, Ill.). The amount of luminescence (relative light units, RLU) was determined following a 0.1 second/well integration of signal. Basal (uninduced) luciferase signal was subtracted from all measurements, and the luciferase signal induced by test samples was expressed as a percentage of the signal in the calcitonin and forskolin controls. Specificity of the luciferase induction for calcitonin receptor-positive cell lines was determined by comparing the percent control values in the calcitonin receptor-positive line (Hollex-1) to those observed in the calcitonin receptor-negative cell line (KZ10-20-48/Zem 228) and the PTH receptor-positive cell line (KZ10-20-48/PTH-20) described below. Samples inducing a signal over the basal level were selected for further characterization, see Table 1 for examples.

human PTH receptor = biological target: T2, human PTH receptor (Homo sapiens, UniProt Q03431); experiment: CRE-luciferase induction in clone KZ10-20-48/PTH-20
T2 construct: expressed in transfected cells; host or cells: BHK570 clone KZ10-20-48 (KZ10-20-48/PTH-20)
T2 sequence (Q03431 27-593): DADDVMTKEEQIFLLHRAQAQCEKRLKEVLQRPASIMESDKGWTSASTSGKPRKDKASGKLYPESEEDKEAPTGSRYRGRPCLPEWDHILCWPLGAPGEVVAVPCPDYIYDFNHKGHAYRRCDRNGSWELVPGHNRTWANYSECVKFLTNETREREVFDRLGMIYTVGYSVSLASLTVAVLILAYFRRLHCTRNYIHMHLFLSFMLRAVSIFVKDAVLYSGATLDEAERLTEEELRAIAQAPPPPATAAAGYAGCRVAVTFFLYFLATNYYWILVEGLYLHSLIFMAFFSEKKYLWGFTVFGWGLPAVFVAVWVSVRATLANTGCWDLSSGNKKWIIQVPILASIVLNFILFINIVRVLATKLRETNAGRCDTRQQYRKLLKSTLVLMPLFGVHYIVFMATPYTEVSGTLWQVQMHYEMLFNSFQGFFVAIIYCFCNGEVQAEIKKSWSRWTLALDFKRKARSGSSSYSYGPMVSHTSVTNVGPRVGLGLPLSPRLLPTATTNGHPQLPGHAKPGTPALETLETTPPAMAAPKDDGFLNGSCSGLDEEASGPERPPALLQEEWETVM
Source text: Test substances that appear to specifically elevate luciferase expression in CT-R positive cells but not CT-R negative cells were subjected to an additional specificity check, i.e. their inability to activate other members of the G-protein coupled receptor family. The parathyroid hormone (PTH) receptor is another member of the G-protein coupled receptor family that transduces signal through adenylate cyclase mediated elevation of cAMP.

EC50 (human PTH receptor)	SMILES	Histology (bone destruction by PTH, Oc size and #) [1]	Release of PTH Induced Ca++ IC50 [2]	Luciferase induction (% of maximum luciferase induction produced by CT, 100 nM) ([3]; crude compound 6.25 μg/ml)	Luciferase induction (% of maximum luciferase induction produced by CT, 100 nM) ([3]; crude compound 12.5 μg/ml)	Luciferase induction (% of maximum luciferase induction produced by CT, 100 nM) ([3]; crude compound 25 μg/ml)	Luciferase induction (% of maximum luciferase induction produced by CT, 100 nM) ([3]; crude compound 50 μg/ml)	Luciferase induction (% of maximum luciferase induction produced by CT, 100 nM) ([3]; crude compound 3.125 μg/ml)	PTH-induced increase in number and size of osteoclasts ([1]; mouse calvariae, PTH 1-34 treatment)
	C=CCNC(=O)[C@@H](Cc1ccc(F)cc1)NC(=O)Nc1cc(C(C)(C)C)ccc1C(C)(C)C [628-033]	Decreases in bone	30 µg/mL	14.71%	27.68%	31.63%	33.62%		
	C=CCNC(=O)[C@@H](Cc1ccc2ccccc2c1)NC(=O)Nc1cc(C(C)(C)C)ccc1C(C)(C)C [628-035]	Decreases in bone	23 µg/mL	34.84%	43.25%	46.43%	52.27%		
	CC(C)(C)c1ccc(C(C)(C)C)c(NC(=O)N[C@H](Cc2ccc3ccccc3c2)C(=O)NCc2ccc3ccccc3c2)c1 [628-055]	Decreases in bone	14 µg/mL	24.81%	35.48%	43.3%	48.69%		
	CC(C)(C)c1ccc(C(C)(C)C)c(NC(=O)N[C@@H](C(=O)NCc2ccc3ccccc3c2)c2ccccc2)c1 [628-056]			14.7%	28.6%	35.6%	37.1%	4.2%	
2000 nM	C=C[C@@]1(C)CC(=O)[C@]2(O)[C@@]3(C)[C@@H](O)CCC(C)(C)[C@@H]3[C@H](O)[C@H](OC(C)=O)[C@@]2(C)O1 [forskolin]								
	CC[C@H](C)[C@H](NC(=O)[C@H](C)NC(=O)[C@@H](NC(=O)[C@H](CCC(N)=O)NC(=O)[C@@H]1CCCN1C(=O)[C@H](Cc1ccccc1)NC(=O)[C@@H](NC(=O)[C@H](Cc1c[nH]cn1)NC(=O)[C@H](Cc1ccccc1)NC(=O)[C@H](CCCCN)NC(=O)[C@H](CC(N)=O)NC(=O)[C@H](Cc1ccccc1)NC(=O)[C@H](CC(=O)O)NC(=O)[C@H](CCC(N)=O)NC(=O)[C@@H](NC(=O)[C@H](Cc1ccc(O)cc1)NC(=O)[C@@H](NC(=O)CNC(=O)[C@H](CC(C)C)NC(=O)[C@H](CCSC)NC(=O)[C@@H]1CSSC[C@H](N)C(=O)NCC(=O)N[C@@H](CC(N)=O)C(=O)N[C@@H](CC(C)C)C(=O)N[C@@H](CO)C(=O)N[C@@H]([C@@H](C)O)C(=O)N1)[C@@H](C)O)[C@@H](C)O)[C@@H](C)O)[C@@H](C)O)C(=O)NCC(=O)N[C@H](C(=O)NCC(=O)N[C@@H](C)C(=O)N1CCC[C@H]1C(N)=O)C(C)C [human calcitonin, reference compound]								suppressed
